pIC50: −log10 of the molar value. Several values for one entry are separate records, joined by “and”; a condition that tells them apart may be missing. Identical values can stand only once.
Tests used:
[1] = target: MMP-13CD (catalytic domain of collagenase 3) (Homo sapiens, UniProt P45452); experiment: Thiopeptolide hydrolysis assay, MMP-13;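 further: inhibition of enzymatic thiopeptolide substrate cleavage (100 µM) in pH 6.0 MES buffer with CaCl2 and DTNB, comparing hydrolysis with versus without inhibitor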
[2] = target: T1, MMP-1FL (full-length interstitial collagenase) (Homo sapiens, UniProt P03956); experiment: Thiopeptolide hydrolysis assay, MMP-1; type: biochemical; settings: Table 1b; read-out: MMP01 IC50
T1 sequence (P03956 100-469): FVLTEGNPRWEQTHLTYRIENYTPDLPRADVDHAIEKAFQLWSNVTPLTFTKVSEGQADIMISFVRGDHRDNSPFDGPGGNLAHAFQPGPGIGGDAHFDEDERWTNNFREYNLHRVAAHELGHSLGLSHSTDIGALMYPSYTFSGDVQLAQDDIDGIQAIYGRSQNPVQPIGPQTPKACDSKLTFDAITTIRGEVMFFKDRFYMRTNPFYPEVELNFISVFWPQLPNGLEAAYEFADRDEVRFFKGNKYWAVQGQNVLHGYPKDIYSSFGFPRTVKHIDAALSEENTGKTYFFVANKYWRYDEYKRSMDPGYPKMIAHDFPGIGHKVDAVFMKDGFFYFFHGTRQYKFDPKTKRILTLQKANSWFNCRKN
Description: They measure the amount by which a test compound reduces the hydrolysis of a thiopeptolide substrate caused by a matrix metalloproteinase enzyme.
Thiopeptolide substrates show virtually no decomposition or hydrolysis in the absence of a matrix metalloproteinase enzyme. A typical thiopeptolide substrate commonly utilized for assays is Ac-Pro-Leu-Gly-thioester-Leu-Leu-Gly-OEt. A 100 μL assay mixture will contain 50 mM of 2-morpholinoethane sulfonic acid monohydrate (MES, pH 6.0) 10 mM CaCl2, 100 μM thiopeptolide substrate, and 1 mM 5,5′-dithio-bis-(2-nitro-benzoic acid) (DTNB). […] The change in absorbance at 405 nm is monitored on a Thermo Max microplate reader (moleucular Devices, Menlo Park, Calif.) at room temperature (22° C.). […] Assays are carried out with and without matrix metalloproteinase inhibitor compounds, and the amount of hydrolysis is compared for a determination of inhibitory activity of the test compounds.

| SMILES | IC50 ([1]; MMP13 IC50 μM, Table IVb) [µM] | further results |
| --- | --- | --- |
| COc1ccc(CNC(=O)c2ccc3c(c2)c(=O)n(Cc2ccc(-c4nnnn4C)cc2)c(=O)n3C)cc1 | 0.0023 |  |
| COC(=O)Cc1ccc(Cn2c(=O)c3cc(C(=O)NCc4ccc(OC)cc4)ccc3n3cnnc23)cc1 [Methyl (4-{7-[(4-methoxy)-benzylcarbamoyl]-5-oxo-5H-[1,2,4]triazolo[4,3-a]quinazolin-4-ylmethyl}-phenyl)-acetate] |  | IC50 ([1]; IC50 μM, Table V, MMP-13): 0.0029 µM |
| COc1ccc(CNC(=O)c2ccc3c(c2)c(=O)n(CCCC(=O)O)c(=O)n3C)cc1 | 1.15 |  |
| COc1ccc(CC#Cc2ccc3c(c2)c(=O)n(Cc2ccccc2)c2nncn32)cc1 [Synthesis Example 72, 4-Benzyl-7-[(4-methoxyphenyl)-prop-1-ynyl]-4H-[1,2,4]-triazolo[4,3-a]quinazolin-5-one] |  | IC50 ([1]; IC50 μM, Table VII, MMP-13): 0.0015 µM |
| COc1ccc(CNC(=O)c2ccc3c(c2)c(=O)n(Cc2ccc(C(=O)OCOC(=O)C(NC(=O)C(N)C(C)C)C(C)C)cc2)c(=O)n3C)cc1 (stereo not drawn) | 0.039 |  |
| COc1ccc(CNC(=O)c2ccc3c(c2)c(=O)n(Cc2ccc(C(=O)O)c(C)c2)c(=O)n3C)cc1 | 0.0018 |  |
| O=C(O)Cc1ccc(Cn2c(=O)c3cc(C(=O)NCc4ccc5c(c4)OCO5)ccc3n3cnnc23)cc1 [(4-{7-[(1,3-Benzodioxol-5-ylmethyl)-carbamoyl]-5-oxo-5H-[1,2,4]triazolo[4,3-a]quinazolin-4-ylmethyl}-phenyl)-acetic acid] |  | IC50 ([1]; IC50 μM, Table V, MMP-13): 0.0011 µM |
| COC(=O)c1ccc(Cn2c(=O)c(C)c3sc(C(=O)NCc4ccc(F)cc4)cn3c2=O)cc1OC |  | IC50 ([1]; MMP13 IC50 (μM), Table 1b): 0.099 µM; pIC50 [2]: < 4.52 |
| COc1ccc(CNC(=O)c2ccc(OC)c(C(=O)NCc3ccccc3)c2)cc1 |  | IC50 ([1]; MMP13 IC50 (nM), Table II): 0.81 µM |
| Cn1c(=O)n(Cc2ccc(F)c(Cl)c2)c(=O)c2cc(C(=O)NCc3ccncc3)ccc21 | 0.026 |  |
| C#CCn1c(=O)c2cc(C(=O)NCc3ccc(OC)cc3)ccc2n(C)c1=O | 0.68 |  |
| COc1ccc(CNC(=O)c2ccc3c(c2)c(=O)n(Cc2cccc(C#N)c2)c(=O)n3C)cc1 | 0.027 |  |
| COc1ccc(CNC(=O)c2ccc3c(c2)c(=O)n(Cc2ccc(-c4noc(=O)[nH]4)cc2)c(=O)n3C)cc1 | 0.0015 |  |
| COc1cccc(CNC(=O)c2ccc3c(c2)c(=O)n(Cc2ccc(F)cc2)c(=O)n3C)c1 | 0.0046 |  |
| CCOC(=O)COc1ccc(CNC(=O)c2ccc3c(c2)c(=O)n(Cc2ccccc2)c(=O)n3C)cc1 | 0.72 |  |
| Cn1c(=O)n(Cc2ccccc2)c(=O)c2cc(C(=O)NCc3ccc(OCC(=O)O)cc3)ccc21 | 2.9 |  |
| COc1ccc(C(=O)NCc2ccc3c(c2)OCO3)cc1C(=O)NCCOc1ccccc1 |  | IC50 ([1]; MMP13 IC50 (nM), Table II): 4.4 µM |
| COc1ccc(CNC(=O)c2ccc3c(c2)c(=O)n(CC2CC2)c(=O)n3C)cc1 | 0.95 |  |
| Cn1c(=O)n(Cc2ccc(C(=O)O)cc2)c(=O)c2cc(C(=O)NCc3ccc(F)cc3)ccc21 | 0.0018 |  |
| COc1ccc(CNC(=O)c2ccc3c(c2)c(=O)n(CCO)c(=O)n3C)cc1 | 6.35 |  |
| COc1ccc(CNC(=O)c2ccc3[nH]c(=O)n(Cc4ccc(N(C)C)cc4)c(=O)c3c2)cc1 | 0.075 |  |
| Cn1c(=O)n(Cc2ccc(C(=O)O)cc2)c(=O)c2cc(C#Cc3ccccc3)ccc21 [Synthesis Example 75, 4-(1-Methyl-2,4-dioxo-6-(2-phenylethynyl)-1,4-dihydro-2H-quinazolin-3-ylmethyl)-benzoic acid] |  | IC50 ([1]; IC50 μM, Table VII, MMP-13): 1.34 µM |
| O=C(O)c1ccc(Cn2c(=O)c3cc(C(=O)NCc4ccncc4)ccc3n3cnnc23)cc1 [4-{7-[(Pyridin-4-ylmethyl)-carbamoyl]-5-oxo-5H-[1,2,4]triazolo[4,3-a]quinazol-4-ylmethyl} benzoic acid] |  | IC50 ([1]; IC50 μM, Table V, MMP-13): 0.0042 µM |
| COc1ccc(CNC(=O)c2ccc3c(c2)c(=O)n(Cc2ccc(C(=O)O)o2)c(=O)n3C)cc1 | 0.057 |  |
| COc1ccc(CNC(=O)c2ccc3c(c2)c(=O)n(Cc2ccc(CN)cc2)c(=O)n3C)cc1 | 0.07 |  |
| COc1ccc(CNC(=O)c2cc(C(=O)NCc3ccc4c(c3)OCO4)ccc2OC)cc1 [N-1,3-Benzodioxol-5-ylmethyl-4-methoxy-N′-(4-methoxy-benzyl)-isophthalamide] |  | IC50 ([1]; MMP13 IC50 (nM), Table II): 0.2 µM and 0.19 µM |
| COc1ccc(CNC(=O)c2ccc3c(c2)c(=O)n(Cc2cccc(OC)c2)c(=O)n3C)cc1 | 0.023 |  |
| COc1ccc(CNC(=O)c2ccc3c(c2)c(=O)n(Cc2ccc(N(C)C)cc2)c(=O)n3C)cc1 | 0.028 |  |
| O=C(O)c1ccc(Cn2c(=O)c3cc(C#CCc4ccccc4)ccc3n3cnnc23)cc1 [Synthesis Example 74, 4-[5-Oxo-7-(3-phenyl-prop-1-ynyl)-5H-[1,2,4]triazolo[4,3-a]quinazolin-4-ylmethyl]-benzoic acid] |  | IC50 ([1]; IC50 μM, Table VII, MMP-13): 0.001 µM |
